From patent US8722910B2, “Diyne compositions” (Evolva AG, priority 2009, dated 2014) come the findings set out here.

The subject of series [1] is Trichophyton tonsurans. Nature of the series: In vitro antifungal activity vs. dermatophytes (MIC/MFC). It counts as cell-based. The note with it: Trichophyton tonsurans (n = 15).
The subject of series [2] is Microsporum canis. The series is described as above. It is filed as cell-based. The note with it: Microsporum canis (n = 15).
The test system of series [3] is T. rubrum. The description is as above. It counts as cell-based. The conditions noted are these: T. rubrum (n = 15).
In series [4] the test system is Epidermophyton floccosum. Described as above. It is filed as cell-based. The note with it: Epidermophyton floccosum (n = 15).
Series [5] relates to T. rubrum, Terbinafine resistant isolates. The series is described as above. It is filed as cell-based.
Series [6] concerns M. cookie. The series is described as above. It counts as cell-based. The conditions noted are these: M. cookie (n = 1).
Series [7] relates to M. vanbreuseghemii. The description is as above. It counts as cell-based. The note with it: M. vanbreuseghemii (n = 1).
Series [8] has as its system C. lusitaniae. The series is described as follows: In vitro antifungal activity vs. yeasts (MIC/MFC). It counts as cell-based. The note with it: Clavispora lusitaniae, C. lusitaniae (n = 1).
In series [9] the test system is C. lipolytica. Nature of the series: In vitro antifungal activity vs. yeasts (MIC/MFC). The note with it: Yarrowia lipolytica, C. lipolytica (n = 1). It is filed as cell-based.
Series [10] deals with C. guilliermondii. The series is described as follows: In vitro antifungal activity vs. yeasts (MIC/MFC). It is filed as cell-based. The conditions noted are these: Meyerozyma guilliermondii, C. guilliermondii (n = 1).
The test system of series [11] is C. parapsilosis. The series is described as follows: In vitro antifungal activity vs. yeasts (MIC/MFC). It counts as cell-based. The conditions noted are these: Lodderomyces parapsilosis, C. parapsilosis (n = 2).
Series [12] has as its system all Candida strains. The series is described as follows: MIC range over all Candida strains tested. The note with it: Table 13 strains. It is filed as cell-based.
The subject of series [13] is S. cerevisiae. Nature of the series: Doubling times of S. cerevisiae. It counts as cell-based. On the procedure: S. cerevisiae was cultured in the presence of 1 and 10 μg/ml of the potassium salt, 10 μg/ml oleic acid and 1 μg/ml of the potassium salt combined with 10 μg/ml oleic acid.
When S. cerevisiae was cultured in the presence of 1 and 10 μg/ml compound IV″, the doubling times increased to 2.4 h and 4.2 h, respectively, compared to 2 h for the untreated control. The addition of 10 μg/ml oleic acid, sodium salt, to 1 μg/ml compound IV″ reversed the doubling time to 2 h as observed for the untreated control or 10 μg/ml oleic acid, sodium salt alone.

The test system of series [14] is OLE1. Nature of the series: OLE1 expression by real time PCR. The conditions noted are these: 250 ng/ml; 120 min; vs drug free control. It counts as cell-based, C. albicans. On the procedure:
Numbers indicate time intervals in minutes. Expression values are normalized to TUB1 and given as multiples of OLE1 expression at 10 minutes in ethanol.
Similarly, the expression of OLE1 in C. albicans was investigated in response to compound IV″. In the presence of 250 ng/ml Compound IV, OLE1 transcript levels were increased 4-fold after 120 min incubation time compared to the drug free control. […] Expression values are normalised to TUB1 and given as multiples of OLE1 expression at 10 minutes in ethanol.

Series [15] is described as follows: GVS moisture sorption. It is filed as physicochemical. The conditions noted are these: 25° C. On the procedure: Sorption isotherms were obtained using a Hiden IGASorp moisture sorption analyser, controlled by CFRSorp software. The sample temperature was maintained at 25° C. by a Huber re-circulating water bath. The humidity was controlled by mixing streams of dry and wet nitrogen, with a total flow rate of 250 ml.min-1. The relative humidity (RH) was measured by a calibrated Vaisala RH probe (dynamic range of 0-95% RH), located near the sample. The weight change, (mass relaxation) of the sample as a function of % RH was constantly monitored by the microbalance (accuracy ±0.001 mg). Typically 10-20 mg of sample was placed in a tared mesh stainless steel basket under ambient conditions. The sample was loaded and unloaded at 40% RH and 25° C. (typical
room conditions). A moisture sorption isotherm was performed. The software uses a least squares minimisation procedure together with a model of the mass
relaxation, to predict an asymptotic value. The measured mass relaxation value must be within 5% of that predicted by the software, before the next % RH value is selected. The sample was recovered after completion of the isotherm and re-analysed by XRPD.

Series [16] can be described thus: Stability of diyne salts on storage (HPLC content). It counts as physicochemical. The note with it: crystalline solid. On the procedure: Potassium (Z)-14-(furan-2-yl)tetradeca-9-en-11,13-diynoate was kept as a crystalline solid for 6 month at 2-8° C. The content of potassium (Z)-14-(furan-2-yl)tetradeca-9-en-11,13-diynoate was determined by HPLC against a reference sample kept at −20° C. After 6 months of storage characteristics such as colour, water content, XRPD profile, of the solid had not changed and it was still a beige solid. […] Also no change in the impurity profile was observed after 6 months storage.
Potassium (Z)-14-(furan-2-yl)tetradeca-9-en-11,13-diynoate was also kept as a crystalline solid for 6 month at 25° C., 60% RH. Analysis was performed as described above. After 6 months of storage characteristics of the solid has not changed and it was still a beige solid. […] Also no change in the impurity profile was observed after 6 months storage.
Potassium (Z)-14-(furan-2-yl)tetradeca-9-en-11,13-diynoate was also kept as a crystalline solid for 6 month at 40° C., 75% RH. Analysis was performed as described above. After 6 months of storage the appearance of the solid had changed to a brown solid. Furthermore, a decrease in the content of potassium (Z)-14-(furan-2-yl)tetradeca-9-en-11,13-diynoate to 96% was observed as analysed by HPLC.
Sodium (Z)-14-(furan-2-yl)tetradeca-9-en-11,13-diynoate was kept as an amorphous solid at room temperature. […] Furthermore the salt was dissolved in an aqueous solution and already after few days the content of sodium (Z)-14-(furan-2-yl)tetradeca-9-en-11,13-diynoate was reduced by 35%, thus proving strong instability of the amorphous salt form.

The mark [17] stands for this setting: 90% inhibition endpoint, read-out: MIC.

SMILES strings stand for the structures. Converted amounts (≈) assume the structure as drawn. “And” between values parts separate entries of the source, which are not always exact repeats. Equal entries are not always repeated. A value given as a limit tells only on which side of the number the result lay.

Take `O=C(O)CCCCCCC/C=C\C#CC#Cc1ccco1` [Compound III″]: the MIC (in general, the lowest concentration that inhibits growth of the organism) in [1] (96 h, 35° C., 4 days) is below 0.06 ng/mL; in [2] (96 h, 35° C., 4 days), below 0.06 ng/mL; in series [3] (Trichophyton rubrum, 96 h, 35° C., 4 days), below 0.06 ng/mL; in [4] (96 h, 35° C., 4 days) it was below 0.06 ng/mL; in series [5] (Trichophyton rubrum, 96 h, T. rubrum (TERB-resistant) (n = 9), 35° C., 4 days), below 0.06 ng/mL; in series [6] (96 h, 35° C., 4 days), 1000 ng/mL (≈ 3520 nM). Moreover, the MIC in [7] (96 h, 35° C., 4 days) is 30 ng/mL (≈ 106 nM); in [8] (setting [17]), below 0.06 ng/mL; in [9] (setting [17]), below 0.06 ng/mL; in series [10] (90% inhibition endpoint), below 0.06 ng/mL; in series [11] (90% inhibition endpoint), 4000 ng/mL (≈ 14100 nM). Moreover, the minimal fungicidal concentration (MFC) (commonly the smallest concentration meeting the test's criterion for killing the fungus) in series [1] was below 0.06 ng/mL; in series [2], 0.5 ng/mL (≈ 1.76 nM); in series [3] (Trichophyton rubrum) it was below 0.06 ng/mL; in series [4] it was 15 ng/mL (≈ 52.8 nM); in [5] (Trichophyton rubrum, T. rubrum (TERB-resistant) (n = 9)), below 0.06 ng/mL; in [6], 2000 ng/mL (≈ 7030 nM). Moreover, the MFC was 16000 ng/mL (≈ 56300 nM) in series [7]; below 0.06 ng/mL in [8]; below 0.06 ng/mL in [9]; 0.5 ng/mL (≈ 1.76 nM) in series [10]; 32000 ng/mL (≈ 113000 nM) in series [11]. In addition, the “MIC90/MIC range 48 h” value in [1] (MIC90, 48 h) was below 0.06 ng/mL; in series [2] (MIC90, 48 h) it was below 0.06 ng/mL; in [3] (MIC90, 48 h) it was below 0.06 ng/mL; in series [4] (MIC90, 48 h), below 0.06 ng/mL; in [5] (T. rubrum, Terbinafine resistant isolates (n = 9), 48 h), below 0.06 ng/mL; in series [6] (48 h), 1000 ng/mL (≈ 3520 nM). Besides, in [7] (48 h), the “MIC90/MIC range 48 h” value is 30 ng/mL (≈ 106 nM). Also, the “MIC range for all Candida strains” value in [12] was below 0.06 to 4000 ng/mL.

Regarding `O=C([O-])CCCCCCC/C=C\C#CC#Cc1ccco1.[K+]` [Compound IV″, potassium (Z)-14-(furan-2-yl)tetradeca-9-en-11,13-diynoate], the Doubling time in [13] (1 μg/ml) was 2.4 h; in [13] (1 μg/ml combined with 10 μg/ml oleic acid) it was 2 h and 2.1 h; in [13] (10 μg/ml) it was 4.2 h. Further, the “increase of OLE1 transcript levels” value in [14] came out at 4 fold. Moreover, the moisture uptake behaviour result in series [15] (GVS) is given as “takes up very little moisture until it reaches approximately 70-80% RH”. Further, the “moisture uptake in weight” value in series [15] (at 90% RH) is 28%. For the same molecule, the “content after storage (HPLC)” value in series [16] (6 month at 2-8° C.) is “had not significantly changed”; in [16] (6 month at 25° C., 60% RH), “had not changed significantly”. Moreover, the “content after storage (HPLC), decrease to” value in series [16] (6 month at 40° C., 75% RH) worked out at 96%.
